Data from article PMC3276575, “Structural and Functional Insights into the Pilotin-Secretin Complex of the Type II Secretion System” (PLoS Pathogens, 2012).
Peptide text beside a SMILES is read from it.

Columns and labels:
[1] = molecular target: T1, OutS_Q114A (Dickeya dadantii, UniProt Q01567, Q114A); assay: Fluorescence quenching titration, secretin peptide binding to pilotin mutant Q114A; details: fluorescence at 340 nm, excitation 290 nm, 15°C, 1 µM pilotin
T1 construct: made in house; host or cells: E. coli (periplasm)
T1 sequence (Q01567 21-133 Q114A): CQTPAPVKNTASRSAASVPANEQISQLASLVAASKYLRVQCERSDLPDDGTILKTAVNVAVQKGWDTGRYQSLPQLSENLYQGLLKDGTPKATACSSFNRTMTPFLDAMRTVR
Text: (§1) The pET-20b(+) plasmid expressing non-lipidated OutS (residues 26 to 132) fused to N-terminal PelB signal peptide has been constructed previously at a manner as the sequence of mature non-lipidated OutS after cleavage by the signal peptidase LepB is: MDP^26VKNT etc. To fuse a C-terminal 6His tag to non-lipidated OutS, SalI site was introduced at the end of outS sequence by using the primer (5′-ctt gac gcc atg cgc acc gtc gac tga ggg gga agc aac tgc) and the reverse complementary one (mutated bases are underlined). Then, by SalI/XhoI digestion the sequence coding for non-lipidated OutS was fused with that coding for 6His. Mutants of OutS were made using Strategene QuikChange and confirmed by sequencing.
(§2) Fluorescence data were collected using a Jasco FP-6300 Spectrofluorometer. […] Emission spectra were recorded at 15°C in steps of 2 nm from 310 to 400 nm. The fluorescence signal at 340 nm was plotted to calculate K d. Pilotin spectra was measured at 1 µM. […]
(§3) The Kd was determined by fitting the following equation: […]
(§4) where [PS] is the concentration of the pilotin/secretin complex, [P0] is the total concentration of the pilotin (1 µM), [S0] is the total concentration of the secretin peptide, and Kd is the dissociation constant. The observed fluorescence signal is then given by: F = FPS[PS] + FP[P]; as there are no tryptophans in the secretin peptide. […]

[2] = molecular target: T2, OutS_L96A (Dickeya dadantii, UniProt Q01567, L96A); assay: Fluorescence quenching titration, secretin peptide binding to pilotin mutant L96A; details: fluorescence at 340 nm, excitation 290 nm, 15°C, 1 µM pilotin
T2 construct: made in house; host or cells: E. coli (periplasm)
T2 sequence (Q01567 21-133 L96A): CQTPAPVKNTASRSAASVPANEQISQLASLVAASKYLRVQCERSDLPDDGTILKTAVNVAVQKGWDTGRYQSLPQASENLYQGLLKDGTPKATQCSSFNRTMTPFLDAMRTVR
Text: as §1, §2, §3, §4

[3] = molecular target: T3, OutS_L100A (Dickeya dadantii, UniProt Q01567, L100A); assay: Fluorescence quenching titration, secretin peptide binding to pilotin mutant L100A; details: fluorescence at 340 nm, excitation 290 nm, 15°C, 1 µM pilotin
T3 construct: made in house; host or cells: E. coli (periplasm)
T3 sequence (Q01567 21-133 L100A): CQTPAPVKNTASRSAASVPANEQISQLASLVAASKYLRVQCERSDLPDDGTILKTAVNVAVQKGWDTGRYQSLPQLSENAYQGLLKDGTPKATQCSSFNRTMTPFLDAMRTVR
Text: as §1, §2, §3, §4

[4] = molecular target: T4, OutS_S49R (Dickeya dadantii, UniProt Q01567, S49R); assay: Fluorescence quenching titration, secretin peptide binding to pilotin mutant S49R; details: fluorescence at 340 nm, excitation 290 nm, 15°C, 1 µM pilotin
T4 construct: made in house; host or cells: E. coli (periplasm)
T4 sequence (Q01567 21-133 S49R): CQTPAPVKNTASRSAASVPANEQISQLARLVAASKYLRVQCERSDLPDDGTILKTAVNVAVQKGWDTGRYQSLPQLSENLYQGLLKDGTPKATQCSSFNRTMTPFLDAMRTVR
Text: as §1, §2, §3, §4

[5] = tested on: inner membrane; details: ref [21]; cited from earlier work
Text: The type II secretion system spans both the inner and outer bacterial membranes, [18]. It consists of an inner membrane subcomplex, periplasmic pseudopilins and the outer membrane secretin [19]. There have been considerable recent advances in our understanding of the T2SS secretin. First the structure of the N-terminal periplasmic domains N0, N1, and N2 in complex with a nanobody was elucidated (PDB code 3EZJ) and secondly a cryo EM reconstruction of the secretin itself has been described. In the absence of pilotin the D. dadantii secretin (OutD) mislocates to the inner ...

[6] = tested on: E. coli NM522 cells; assay: Membrane location by flotation sucrose gradient centrifugation; assay type: cell-based; details: with pilotin OutS, immunoblot
Text: (§5) Figure 4 In vivo determination of secretin interactions with pilotin. Removal of the extreme C-terminal region of the secretin results in mislocalization of the secretin to the inner membrane (A) Sequence of the C-terminus of Dickeya dadantii secretin (OutD) along with the secondary structure prediction for this region; the predicted three helices are marked “H”. The sequences of the three secretin deletion mutants (OutDΔC1 to OutDΔC3) and the C-terminal secretin peptides used are shown. (B) Stabilization of truncated derivatives of the secretin (OutD) by pilotin (OutS) in vivo. E. coli MC3 cells expressing an OutD derivative (indicated above) and either OutS (+) or empty pACT3 vector (−) were grown for 12 h at 30°C in LB medium and then analyzed by immunoblotting with OutD antibodies. In the same cultures, β-galactosidase activity was assessed to estimate expression of pspA-lacZ. An elevated level of pspA reflects mislocalization of the corresponding secretin derivative to the inner membrane. […] The whole membrane fraction from E. coli NM522 cells coexpressing the indicated secretin derivatives and pilotin was separated by flotation sucrose gradient centrifugation and analyzed by immunoblotting with OutD- antibodies or stained with Coomassie G-250 to detect the major porins, which reflect the position of the outer membrane. […]

[7] = tested on: pspA-lacZ; assay: pspA-lacZ induction (β-galactosidase activity); assay type: cell-based; details: E. coli MC3, 12 h at 30°C in LB
Text: as §5

Molecule | Kd [1] | Kd [2] | Kd [3] | Kd [4] | location of secretin in absence of pilotin [5] | outer membrane location / targeting [6] | pspA (β-galactosidase activity) ([7]; OutS: +) | pspA (β-galactosidase activity) ([7]; OutS: − (empty pACT3 vector))
CC[C@H](C)[C@H](NC(=O)[C@H](CO)NC(=O)[C@H](CO)NC(=O)[C@H](CCC(N)=O)NC(=O)[C@@H](NC(=O)[C@H](CCC(N)=O)NC(=O)[C@H](CCCNC(=N)N)NC(=O)[C@H](Cc1ccccc1)NC(=O)[C@@H](NC(=O)[C@H](Cc1ccc(O)cc1)NC(=O)[C@@H](N)[C@@H](C)O)[C@@H](C)O)C(C)C)C(=O)N[C@@H](CO)C(=O)N[C@@H](CC(=O)O)C(=O)N[C@@H](Cc1ccccc1)C(=O)N[C@@H](Cc1ccc(O)cc1)C(=O)N[C@@H](CCCCN)C(=O)N1CCC[C@H]1C(=O)N[C@@H](CCC(=O)O)C(=O)O [18 residue secretin peptide] (H-TYTFRQVQSSISDFYKPE-OH) | 1.1 ± 0.35 µM | 5.3 ± 1.2 µM | 2.1 ± 0.5 µM | > 200 µM |  |  |  | 
OutD: Dickeya dadantii secretin of the type II secretion system, UniProt Q01565 (protein, UniProt Q01565 28-710, looked up) Secretin OutD: AEFSASFKGTDIQEFINTVSKNLNKTVIIDPTVRGTISVRSYDMMNEGQYYQFFLSVLDVYGFSVVPMDNGVLKVIRSKDAKSSSIPLANNEQPGIGDELVTRVVPLNNVAARDLAPLLRQLNDNAGAGTVVHYEPSNVLLMTGRAAVIKRLVDIVNTVDKTGDREMVTVPLTYASAEDVAKLVNDLNKSDEKNALPSTMLANVVADGRTNSVVVSGEENARQRAVEMIRQLDRKQVVQGGTKVIYLKYAKALDLIEVLAGNGTSGNRNSSSSNASRPSSPRSGSSSNSNSSSGSSGSSSGSSSSSSSSSSMGFGSAFGSTSSSGGRTITIQGKEVTVRAHDQTNSLIITAPPDIMRDLEQVINQLDIRRPQVLVEAIIAEIQDADGLNLGIQWANKRAGMTQFTNTGIPISTAVIGTDQFRSNGTLTTAYASALSSFNGVTAGFYRGNWSMLLTALSSDSKNDVLATPSIVTLDNMEATFNVGQEVPVLTGSQTTSADNIFNTVERKTVGIKLRVKPQINEGDSVLLQIEQEVSSVADSNSSTNSSLGVTFNTRTVNNAVMVTNGETVVVGGLLDKTSVESNDKVPLLGDIPWLGSLFRSKSQEVRKRNLMLFLRPTIIRDPGQFQEASINKYRSFNNEQQQQRGEGNGVLDNNTLRLSGGNTYTFRQVQSSISDFYKPEGR |  |  |  |  | mislocates to the inner membrane | promotes the outer membrane location | 800 | 1100
